Source: EPA's aquatic toxicity sets

Key:
Pimephales promelas = assay: 96 h LC50 (-log10 mol/L); higher = more toxic
Daphnia magna = assay: 48 h LC50 (-log10 mol/L); higher = more toxic
Tetrahymena pyriformis = assay: 48 h IGC50 (-log10 mol/L); higher = more toxic

Row | SMILES | 96 h LC50 (-log10 mol/L) (Pimephales promelas) | 48 h LC50 (-log10 mol/L) (Daphnia magna) | 48 h IGC50 (-log10 mol/L) (Tetrahymena pyriformis)
1 | CC(=O)CC(C)=O | 2.85 | 3.32 | 
2 | COP(=S)(OC)SCN1C(=O)c2ccccc2C1=O | 4.59 | 5.6 | 
3 | ClC1=C(Cl)[C@]2(Cl)[C@H]3[C@H]([C@H](Cl)[C@]4(Cl)O[C@H]34)[C@@]1(Cl)C2(Cl)Cl | 8.1 | 5.51 | 
4 | CCCCOC(=O)c1ccccc1C(=O)OCc1ccccc1 | 5.22 | 5.19 | 
5 | C1=CC2C3C=CC(C3)C2C1 (stereo unspecified) | 3.41 | 4.1 | 
6 | Oc1c(Cl)cc(Cl)c(Cl)c1Cl | 5.35 | 6.11 | 
7 | CCOP(=S)(OCC)Oc1ccc([N+](=O)[O-])cc1 | 5.32 | 8.15 | 
8 | C1CO1 | 2.72 | 2.33 | 
9 | ClCC(Cl)CCl | 3.41 | 3.65 | 
10 | ClC(Cl)=C(Cl)Cl | 3.96 | 4 | 
11 | COP(=S)(OC)Oc1ccc([N+](=O)[O-])c(C)c1 | 4.81 | 7.67 | 
12 | CCCCOC(=O)c1ccccc1C(=O)OCCCC | 5.37 | 4.88 | 
13 | c1cc2c3c(cccc3c1)CC2 | 4.98 | 3.58 | 
14 | CCOCC | 1.46 | 1.73 | 
15 | O=[N+]([O-])c1ccc(O)cc1 |  | 4.02 | 4.42
16 | O=P(O)(O)CCCl | 3.05 | 3.04 | 
17 | c1ccc(Oc2ccccc2)cc1 | 4.63 | 5.43 | 
18 | S=c1[nH]c2ccccc2s1 | 4.18 | 4.49 | 
19 | ClC(Cl)C(Cl)(Cl)Cl | 4.43 | 4.19 | 
20 | c1ccsc1 |  | 2.42 | 1.56

Row | SMILES | 96 h LC50 (-log10 mol/L) (Pimephales promelas) | 48 h LC50 (-log10 mol/L) (Daphnia magna) | 48 h IGC50 (-log10 mol/L) (Tetrahymena pyriformis)
21 | O=Cc1ccc(O)c(O)c1O |  | 3.67 | 3
22 | CCCCN=C=S |  | 5.43 | 4.72
23 | c1ccc(C2CO2)cc1 (stereo unspecified) | 4 | 4.02 | 
24 | Oc1ccc(-c2ccccc2)cc1 |  | 4.67 | 4.39
25 | Cc1ccc([N+](=O)[O-])cc1 | 3.44 | 4.01 | 
26 | CCC1(c2ccccc2)C(=O)NC(=O)NC1=O | 2.68 | 2.2 | 
27 | CC1=CC(=O)CC(C)(C)C1 | 2.74 | 3.06 | 
28 | Nc1c(Cl)c(Cl)nc(C(=O)O)c1Cl | 3.64 | 3.64 | 
29 | Cc1c(Cl)cccc1[N+](=O)[O-] |  | 4.61 | 3.68
30 | c1ccncc1 |  | 1.81 | 1.68
31 | Clc1ccc(C(c2ccc(Cl)cc2)C(Cl)(Cl)Cl)cc1 | 7.27 | 8.27 | 
32 | NC(=O)c1c(Cl)cccc1Cl | 2.61 | 2.35 | 
33 | S=C=Nc1ccc(N=C=S)cc1 |  | 6.4 | 6.35
34 | O=[N+]([O-])c1cccc(Cl)c1Cl |  | 4.62 | 4.07
35 | CCOC(C)=O |  | 2.09 | 1.7
36 | Oc1c(Cl)c(Cl)cc(Cl)c1Cl |  | 5.61 | 5.22
37 | Cc1ccc([N+](=O)[O-])cc1C |  | 3.98 | 3.59
38 | CCC(=O)O |  | 3.17 | 2.49
39 | O=P(Oc1ccccc1)(Oc1ccccc1)Oc1ccccc1 |  | 5.51 | 4.81
40 | Nc1cc(Cl)ccc1Cl |  | 4.74 | 3.58

Row | SMILES | 96 h LC50 (-log10 mol/L) (Pimephales promelas) | 48 h LC50 (-log10 mol/L) (Daphnia magna) | 48 h IGC50 (-log10 mol/L) (Tetrahymena pyriformis)
41 | O=C(O)c1ccccc1O |  | 3.07 | 2.49
42 | S=C=NCCc1ccccc1 |  | 6.1 | 5.54
43 | CCCCc1ccccc1 |  | 5.55 | 4.25
44 | CN(C)c1ccccc1 |  | 4.38 | 3.28
45 | CC(C)c1ccccc1 |  | 3.77 | 3.69
46 | S=C=NCc1ccccc1 |  | 6.54 | 5.74
47 | Clc1ccc(Cl)cc1 |  | 4.14 | 3.53
48 | Cc1ccccc1N |  | 5.31 | 2.84
49 | O=C(N=C=S)c1ccccc1 |  | 4.93 | 3.1
50 | Cc1ccc2ccccc2c1 |  | 4.98 | 4.08
51 | Cc1ccc(O)c(C)c1 |  | 4.76 | 3.14
52 | O=[N+]([O-])c1cc(Cl)cc(Cl)c1 |  | 4.43 | 4.13
53 | CCCCC(CC)C(=O)O (stereo unspecified) |  | 3.08 | 3.08
54 | OCCCl |  | 2.58 | 1.58
55 | O=Cc1ccccc1 |  | 3.98 | 2.8
56 | Cc1ccc(C)cc1 |  | 3.52 | 3.25
57 | c1ccc2[nH]ccc2c1 |  | 5.07 | 3.21
58 | c1ccc2c(c1)oc1ccccc12 |  | 5 | 4.42
